The values that follow come from PMC5419589 (Bioorganic & medicinal chemistry, 2016).

The nature of data set [1]: Brain:plasma compound concentration measurements in mice. The data set is classed as in vivo. To be noted: following intraperitoneal injection in mice.
The subject of data set [2] is T. brucei brucei strain BF427. Put plainly: T. brucei growth inhibition assay. The following applies: for activity on T. brucei cells (in words): T. brucei EC50 assay; for fold reduction of potency compared to compound 2: vs 2, T. brucei EC50. The data set is classed as cell-based, Trypanosoma brucei brucei.
For data set [3], the system named is T. brucei brucei (strain TREU667). Description: Chronic. The data set is classed as in vivo, mouse. To be noted: for relapse with parasites in the blood / suppression of parasitemia during treatment phase: TREU667, 50 mg/kg twice a day oral day 21 to 34; for number of mice free of parasitemia/number of mice in the group: same dosing.
Data set [4] can be described thus: Mouse oral pharmacokinetics. The data set is classed as in vivo. To be noted: mice.
For data set [5] the following is noted: severe side effects of treatment; cited from earlier work.

Structures are written as SMILES.

In the case of `Cl.NCCN(C(=O)c1ccc(Cl)cc1Cl)c1ccc(F)cc1` [Compound 1], in data set [1], the “permeability into brain tissue (in words)” value is recorded as “excellent permeability into brain tissue”.

Consider `O=C(c1ccc(Cl)cc1Cl)N(CCN1CCOCC1)c1ccc(Cl)cc1` [Compound 48, 2,4-Dichloro-N-(4-chlorophenyl)-N-[2-(morpholin-4-yl)ethyl] benzamide], for which the “activity on T. brucei cells (in words)” value in data set [2] was “inactive”.

In the case of `O=C(c1ccc(Cl)cc1Cl)N(CCO)c1ccc(Cl)cc1` [Compound 49, 2,4-Dichloro-N-(4-chlorophenyl)-N-(2-hydroxyethyl)benzamide], the “activity on T. brucei cells (in words)” value in data set [2] is “inactive”.

Regarding `Cl.NCCCN(C(=O)c1ccc(Cl)cc1Cl)c1ccc(Cl)cc1` [Compound 50, N-(3-Aminopropyl)-2,4-dichloro-N-(4-chlorophenyl)benzamide], in data set [2], the “fold reduction of potency compared to compound 2” value was found to be 10 fold.

Take `CNCCN(C(=O)c1ccc(Cl)cc1Cl)c1ccc(Cl)cc1.Cl` [Compound 58, 2,4-Dichloro-N-(4-chlorophenyl)-N-[2-(methylamino)ethyl] benzamide hydrochloride]: in data set [2], the “fold reduction of potency compared to compound 2” value came to 5 fold.

As for `N#CCN(C(=O)c1ccc(Cl)cc1Cl)c1ccc(Cl)cc1` [Compound 60, 2,4-Dichloro-N-(4-chlorophenyl)-N-(cyanomethyl)benzamide], the “activity on T. brucei cells (in words)” value in data set [2] was “inactive”.

On to `Cl.O=C(c1ccc(Cl)cc1Cl)N(c1ccc(Cl)cc1)c1cccnc1` [Compound 63, 2,4-Dichloro-N-(4-chlorophenyl)-N-(pyridin-3-yl)benzamide], for which the “activity on T. brucei cells (in words)” value in data set [2] is “inactive”.

`Cl.NCCN(C(=O)c1ccc(F)cc1C(F)(F)F)c1ccc(OCc2ccc(Cl)cc2)cc1` [Compound 65, N-(2-Aminoethyl)-N-{4-[(4-chlorophenyl)methoxy]phenyl}-4-fluoro-2-(trifluoromethyl)benzamide hydrochloride]: the “activity on T. brucei cells (in words)” value in data set [2] is “single digit nanomolar EC50 values”. Moreover, in data set [3], the “relapse with parasites in the blood” value is “all mice relapsed”. The “suppression of parasitemia during treatment phase” value in data set [3] is listed as “partial suppression”. For the same compound, the “number of mice free of parasitemia/number of mice in the group” value in data set [3] (day 35 post-infection, day 1 post-treatment) is given as 4/4; in data set [3] (day 36 post-infection, day 2 post-treatment) it was 4/4; in data set [3] (day 37 post-infection, day 3 post-treatment), 2/4; in data set [3] (day 38 post-infection, day 4 post-treatment), 1/4; in data set [3] (day 39 post-infection, day 5 post-treatment), 1/4; in data set [3] (day 40 post-infection, day 6 post-treatment), 1/4. Further, the “number of mice free of parasitemia/number of mice in the group” value is on record as 1/4 in data set [3] (day 41–42 post-infection, day 7–8 post-treatment); 1/4 in data set [3] (day 43–45 post-infection, day 9–11 post-treatment); 0/4 in data set [3] (day 46–49 post-infection, day 12–15 post-treatment).

Consider `Cl.NCCN(C(=O)c1ccccc1C(F)(F)F)c1ccc(OCc2ccc(Cl)cc2)cc1` [Compound 66, N-(2-Aminoethyl)-N-{4-[(4-chlorophenyl)methoxy]phenyl}-2-(trifluoromethyl)benzamide hydrochloride], for which the “activity on T. brucei cells (in words)” value in data set [2] is given as “single digit nanomolar EC50 values”.

With `Cl.NCCN(C(=O)c1cccnc1C(F)(F)F)c1ccc(OCc2ccc(Cl)cc2)cc1` [Compound 68, N-(2-Aminoethyl)-N-{4-[(4-chlorophenyl)methoxy]phenyl}-2-(trifluoromethyl)pyridine-3-carboxamide hydrochloride], the “fold more active than 2-chloronicotinoyl (67)” value in data set [2] (vs 67) was found to be 10 fold.

On to `CC(C)c1ccc(COc2ccc(N(CCN)C(=O)c3cccnc3C(F)(F)F)cc2)cc1.Cl` [Compound 73], for which the “oral bioavailability (in words)” value in data set [4] is “orally bioavailable”. For the same compound, in data set [3], the “relapse with parasites in the blood” value is reported as “all mice relapsed” and the “suppression of parasitemia during treatment phase” value is recorded as “complete suppression”.

As for `Nc1nc(N)nc(Nc2ccc([As]3SCC(CO)S3)cc2)n1` (stereo not shown) [Melarsoprol], in data set [5], the fatalities in patients was 3–10%.
